Source: US7488712B2, “Histone deacetylase inhibitors and methods for producing the same” (Kyushu Institute of Technology, priority 2002, dated 2009)
pEC50: −log10 of the molar value. *1 amine or outer side, *2 acyl side, *3 side chain or, on linkers, in order; H or OH if unused. Where a SMILES comes first, the peptide text is derived from it. Bridges are numbered along the chain shown (N, C = ends). Roman numbers before positions name the chains, in order. [ ]: non-standard residue; d: D form. hNle(7-SH) = O=C([C@H](CCCCCS[*:3])N[*:1])[*:2]; Gly((CH2)5SH) = N[C@@H](CCCCCS)C(=O)O; Pip = O=C(O)[C@@H]1CCCCN1; dPip = O=C(O)[C@H]1CCCCN1

Legend:
human HDAC1 = molecular target: T1, human HDAC1 (Homo sapiens, UniProt Q13547); experiment: In vitro HDAC inhibition activity, [3H]-acetylated histone substrate, HDAC1; type: biochemical
T1 construct: FLAG; made in house; host or cells: 293T cells (transient transfection, anti-FLAG immunoprecipitation, FLAG peptide elution)
Procedure: (§1) To measure HDAC inhibition activity, an HDAC solution was prepared as described below. 1×10^7 of 293T cells were plated on to a 100-mm dish and, after 24 hours, transfected with vectors (1 μg) expressing human HDAC1 and HDAC4 or mouse HDAC6, using LipofectAmine 2000 reagent (Life Technologies, Inc. Gaithersburg, Md.). […] The vectors were introduced for five hours in OPTI-MEM. The medium was then replaced with Dulbecco's modified Eagle's medium (DMEM), and incubated for 19 hours. The cells were washed with PBS, suspended in lysis buffer (50 mM Tris-HCl (pH7.5), 120 mM NaCl, 5 mM EDTA, and 0.5% Nonidet P-40), and sonicated. The supernatant was collected by centrifugation and nonspecific protein was removed using Protein A/G plus agarose beads (Santa Cruz Biotechnologies, Inc.). Anti-FLAG M2 antibodies (Sigma-Aldrich, Inc.) were added to the supernatant of cells expressing HDAC1 or HDAC4. Anti-HA antibodies (clone 3F10, Roche Molecular Biochemicals) were added to the supernatant of cells expressing HDAC6. Reaction in the respective mixtures was carried out at 4° C. for one hour. The resulting reaction mixtures were independently mixed with agarose beads and further reacted at 4° C. for one hour. The agarose beads were washed three times with lysis buffer and then washed once with HD buffer (20 mM Tris-HCl (pH8.0), 150 mM NaCl, 10% glycerol, and a complete protease inhibitor cocktail (Boehringer Mannheim, Germany)). […] The HDAC reaction solution was used for determining HDAC inhibition activity as shown below.
(§2) In vitro HDAC inhibition activity was evaluated as follows: A test compound was dissolved in DMSO and adjusted to 10 mM. This was used as an inhibitor stock solution. […] These reactions were stopped by adding 10 μl HCl. The [^3H] acetic acid excised by the enzyme reaction was extracted with ethyl acetate and subjected to radioactive dose measurement. As a negative control, the same procedure was carried out in which no inhibitor was added to the reaction system. The inhibition activity was expressed as a 50% inhibition concentration (“IC50 (nM)”) of the HDAC activity in the negative control (Tables 1 to 4).

human HDAC4 = molecular target: T2, human HDAC4 (Homo sapiens, UniProt P56524); experiment: In vitro HDAC inhibition activity, [3H]-acetylated histone substrate, HDAC4; type: biochemical
T2 construct: FLAG; made in house; host or cells: 293T cells (transient transfection, anti-FLAG immunoprecipitation, FLAG peptide elution)
Procedure: as §1, §2

mouse HDAC6 = molecular target: T3, mouse HDAC6 (Mus musculus, UniProt Q9Z2V5); experiment: In vitro HDAC inhibition activity, [3H]-acetylated histone substrate, HDAC6; type: biochemical
T3 construct: HA; made in house; host or cells: 293T cells (transient transfection, anti-HA immunoprecipitation, HA peptide elution)
T3 sequence (Q9Z2V5 1-1149): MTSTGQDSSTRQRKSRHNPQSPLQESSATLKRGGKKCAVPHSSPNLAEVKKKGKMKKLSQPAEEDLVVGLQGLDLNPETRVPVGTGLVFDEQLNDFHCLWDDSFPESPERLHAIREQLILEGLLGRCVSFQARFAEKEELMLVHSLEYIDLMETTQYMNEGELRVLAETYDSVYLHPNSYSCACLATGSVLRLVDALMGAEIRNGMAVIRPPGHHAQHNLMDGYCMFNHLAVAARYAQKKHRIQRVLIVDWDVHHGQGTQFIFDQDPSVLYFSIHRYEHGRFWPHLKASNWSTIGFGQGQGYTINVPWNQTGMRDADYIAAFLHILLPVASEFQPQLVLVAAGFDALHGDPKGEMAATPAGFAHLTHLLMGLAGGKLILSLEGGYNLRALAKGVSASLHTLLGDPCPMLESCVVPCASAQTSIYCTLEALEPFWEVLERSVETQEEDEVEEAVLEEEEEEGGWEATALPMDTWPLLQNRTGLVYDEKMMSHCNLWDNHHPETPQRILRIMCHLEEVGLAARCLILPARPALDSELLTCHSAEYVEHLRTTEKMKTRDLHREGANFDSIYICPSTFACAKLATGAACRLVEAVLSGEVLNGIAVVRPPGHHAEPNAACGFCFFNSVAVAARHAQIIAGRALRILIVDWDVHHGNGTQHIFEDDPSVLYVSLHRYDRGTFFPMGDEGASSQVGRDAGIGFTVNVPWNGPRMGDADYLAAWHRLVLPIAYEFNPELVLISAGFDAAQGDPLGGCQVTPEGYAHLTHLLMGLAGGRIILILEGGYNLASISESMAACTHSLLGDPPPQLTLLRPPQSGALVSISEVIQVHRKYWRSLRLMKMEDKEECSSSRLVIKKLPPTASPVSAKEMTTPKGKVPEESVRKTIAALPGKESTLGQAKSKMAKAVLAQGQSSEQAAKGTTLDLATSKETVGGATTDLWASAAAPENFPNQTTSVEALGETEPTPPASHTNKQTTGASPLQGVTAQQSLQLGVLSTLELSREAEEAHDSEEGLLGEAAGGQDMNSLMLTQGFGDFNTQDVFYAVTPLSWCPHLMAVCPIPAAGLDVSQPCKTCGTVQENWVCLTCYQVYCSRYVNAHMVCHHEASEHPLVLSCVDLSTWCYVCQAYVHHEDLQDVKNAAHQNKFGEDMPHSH
Procedure: as §1, §2

[1] = system: human wild-type p21 promoter; experiment: p21 promoter-inducing activity (luciferase) in MFLL-9 cells; type: cell-based
Procedure: The HDAC inhibition activity in vivo was measured using p21 promoter-inducing activity as an index, as shown below. The MFLL-9 cells employed for the experiments stably maintained fusion genes of human wild-type p21 promoter and luciferase (Dr. B. Vogelstaein). Using phenol red-free DMEM medium comprising 10% FBS, cultivation was carried out in a steam-saturated incubator at 37° C. with 5% carbon dioxide. The MFLL-9 cells were plated at a density of 85,000 cells/well on a 96-well microtiter plate, each in 99 μl of the above-mentioned medium. These were then cultivated for six hours. One μl of test compound solution was added to each well, which was then cultured for another 18 hours.
The intensity of luminescence caused by the product of the enzyme reaction for intracellular luciferase expression was measured using Luc Lite (Packard BioScience Company). A group in which test compounds were not added was used as a negative control group. The values measured for this group were used as a standard. The activities for each concentration of added test compound were expressed relative to the above-mentioned standard value, 1.

[2] = Table 1, X = H (coexisting with DTT)
[3] = Table 1, X = H (coexisting with DTT), 50% of maximum active value for TSA

T1 sequence (Q13547 whole entry): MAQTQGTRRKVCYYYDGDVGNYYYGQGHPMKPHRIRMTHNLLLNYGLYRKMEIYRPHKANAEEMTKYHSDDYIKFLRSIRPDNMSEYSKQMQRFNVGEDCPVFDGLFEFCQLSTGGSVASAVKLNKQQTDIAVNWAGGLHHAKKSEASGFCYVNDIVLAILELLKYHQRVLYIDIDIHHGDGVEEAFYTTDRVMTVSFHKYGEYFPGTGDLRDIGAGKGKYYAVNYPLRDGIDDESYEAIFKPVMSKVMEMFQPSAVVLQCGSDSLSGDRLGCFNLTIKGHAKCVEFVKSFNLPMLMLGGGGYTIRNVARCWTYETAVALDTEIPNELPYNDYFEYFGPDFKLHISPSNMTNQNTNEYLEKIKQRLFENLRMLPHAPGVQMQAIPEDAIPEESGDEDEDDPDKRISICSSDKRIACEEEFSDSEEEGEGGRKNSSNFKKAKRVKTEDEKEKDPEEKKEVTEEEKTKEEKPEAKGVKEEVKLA
T2 sequence (O15379 whole entry partner): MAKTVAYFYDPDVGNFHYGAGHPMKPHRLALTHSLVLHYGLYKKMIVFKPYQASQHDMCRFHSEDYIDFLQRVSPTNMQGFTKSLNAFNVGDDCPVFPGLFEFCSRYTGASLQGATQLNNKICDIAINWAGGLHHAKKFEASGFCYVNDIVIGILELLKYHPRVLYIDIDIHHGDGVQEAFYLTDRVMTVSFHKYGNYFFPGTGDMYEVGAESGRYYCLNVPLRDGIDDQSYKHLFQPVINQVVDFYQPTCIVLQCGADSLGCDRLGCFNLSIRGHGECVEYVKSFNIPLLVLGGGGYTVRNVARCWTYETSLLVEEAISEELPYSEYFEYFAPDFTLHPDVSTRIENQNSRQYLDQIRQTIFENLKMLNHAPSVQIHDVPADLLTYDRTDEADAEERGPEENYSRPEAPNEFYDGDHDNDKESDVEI
T2 sequence (P56524 whole entry): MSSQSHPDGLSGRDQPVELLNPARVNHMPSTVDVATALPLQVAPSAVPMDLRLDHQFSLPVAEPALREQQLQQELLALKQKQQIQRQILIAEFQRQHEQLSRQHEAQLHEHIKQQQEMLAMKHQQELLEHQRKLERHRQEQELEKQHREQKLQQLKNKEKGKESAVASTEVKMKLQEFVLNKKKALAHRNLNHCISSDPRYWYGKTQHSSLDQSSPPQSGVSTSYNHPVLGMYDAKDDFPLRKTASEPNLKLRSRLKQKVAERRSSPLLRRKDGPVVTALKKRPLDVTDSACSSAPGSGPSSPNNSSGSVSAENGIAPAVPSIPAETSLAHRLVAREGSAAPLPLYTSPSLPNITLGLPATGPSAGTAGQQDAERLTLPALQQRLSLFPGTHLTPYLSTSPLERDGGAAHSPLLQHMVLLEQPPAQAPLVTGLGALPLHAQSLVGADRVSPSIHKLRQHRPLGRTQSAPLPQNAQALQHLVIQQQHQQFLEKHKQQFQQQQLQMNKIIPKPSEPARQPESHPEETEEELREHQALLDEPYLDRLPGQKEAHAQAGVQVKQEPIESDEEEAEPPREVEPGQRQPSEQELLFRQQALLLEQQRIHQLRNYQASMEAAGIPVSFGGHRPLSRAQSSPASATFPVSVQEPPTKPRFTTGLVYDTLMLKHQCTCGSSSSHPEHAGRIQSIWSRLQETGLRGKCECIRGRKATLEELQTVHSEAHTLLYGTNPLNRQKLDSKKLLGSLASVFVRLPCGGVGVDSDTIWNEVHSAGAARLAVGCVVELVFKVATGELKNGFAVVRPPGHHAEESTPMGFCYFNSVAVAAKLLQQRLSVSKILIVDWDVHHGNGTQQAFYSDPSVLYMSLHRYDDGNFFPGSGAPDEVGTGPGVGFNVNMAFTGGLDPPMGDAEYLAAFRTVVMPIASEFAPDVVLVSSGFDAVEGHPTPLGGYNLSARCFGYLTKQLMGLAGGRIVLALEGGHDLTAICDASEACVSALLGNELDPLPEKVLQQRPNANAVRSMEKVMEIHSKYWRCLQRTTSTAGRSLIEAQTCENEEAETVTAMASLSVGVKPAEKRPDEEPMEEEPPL

Molecule	IC50 (human HDAC1; Table 2, homodimer) [nM]	IC50 (human HDAC4; Table 2, homodimer) [nM]	IC50 (mouse HDAC6; Table 2, homodimer) [nM]	pEC50 ([1]; Table 2, homodimer)	IC50 (human HDAC1; [2]) [nM]	IC50 (human HDAC4; [2]) [nM]	IC50 (mouse HDAC6; [2]) [nM]	pEC50 [1, 3]	pEC50 ([1]; Table 3, hybrid with DTT (/DTT))	pEC50 ([1]; Table 3, hybrid, without DTT)
CC[C@H](C)[C@@H]1NC(=O)[C@@H](Cc2ccc(OC)cc2)NC(=O)[C@H](CCCCCSSCCCCC[C@@H]2NC(=O)[C@H]3CCCCN3C(=O)[C@H]([C@@H](C)CC)NC(=O)[C@@H](Cc3ccc(OC)cc3)NC2=O)NC(=O)[C@H]2CCCCN2C1=O [SCOP 300, cyclo(-L-Am7(-)-D-Tyr(Me)-L-Ile-D-Pip-] (I: cyclo([hNle(7-SH)][dY](Me)I[dPip]) / II: cyclo([hNle(7-SH)][dY](Me)I[dPip]); disulfide I:1-II:1)	61.1	36.2	255000	5.13	–	–	–	–	–	–
CC[C@H](C)[C@@H]1NC(=O)[C@@H](Cc2ccc(OC)cc2)NC(=O)[C@H](CCCCCSSCCCCC[C@@H]2NC(=O)[C@@H]3CCCCN3C(=O)[C@H]([C@@H](C)CC)NC(=O)[C@@H](Cc3ccc(OC)cc3)NC2=O)NC(=O)[C@@H]2CCCCN2C1=O [SCOP 298, cyclo(-L-Am7(-)-D-Tyr(Me)-L-Ile-L-Pip-] (I: cyclo([hNle(7-SH)][dY](Me)I[Pip]) / II: cyclo([hNle(7-SH)][dY](Me)I[Pip]); disulfide I:1-II:1)	114	33.7	418000	5.24	–	–	–	–	–	–
CC[C@H](C)[C@@H]1NC(=O)[C@@H](Cc2ccc(OC)cc2)NC(=O)[C@H](CCCCCS)NC(=O)[C@@H]2CCCN2C1=O [SCOP 148] (cyclo([Gly((CH2)5SH)][dY](Me)IP))	–	–	–	–	81.4	17	> 500000	5.17	–	–
cyclo(-L-Am7(S2Py)-D-Tyr(Me)-L-Ile-D-Pro-) [SCOP 401]	–	–	–	–	–	–	–	–	6.09	5.87
CC[C@H](C)[C@@H]1NC(=O)[C@@H](Cc2ccc(OC)cc2)NC(=O)[C@H](CCCCCCCSSCCCCCCC[C@@H]2NC(=O)[C@H]3CCCN3C(=O)[C@H]([C@@H](C)CC)NC(=O)[C@@H](Cc3ccc(OC)cc3)NC2=O)NC(=O)[C@H]2CCCN2C1=O [SCOP 308, cyclo(-L-Am9(-)-D-Tyr(Me)-L-Ile-D-Pro-]	983	505	745000	3.63	–	–	–	–	–	–
CC[C@H](C)[C@@H]1NC(=O)[C@@H](Cc2ccc(OC)cc2)NC(=O)[C@H](CCCCCS)NC(=O)[C@@H]2CCCCN2C1=O [SCOP 149] (cyclo([Gly((CH2)5SH)][dY](Me)I[Pip]))	–	–	–	–	2.37	5.22	44300	6.22	–	–
CC[C@H](C)[C@@H]1NC(=O)[C@@H](Cc2ccc(OC)cc2)NC(=O)[C@H](CCCCCCSSCCCCCC[C@@H]2NC(=O)[C@H]3CCCN3C(=O)[C@H]([C@@H](C)CC)NC(=O)[C@@H](Cc3ccc(OC)cc3)NC2=O)NC(=O)[C@H]2CCCN2C1=O [SCOP 306, cyclo(-L-Am8(-)-D-Tyr(Me)-L-Ile-D-Pro-]	153	319	1.32e+06	–	–	–	–	–	–	–
